Measured values reported in patent publication US20230096028A1, “BICYCLIC HETEROCYCLYL COMPOUNDS AND USES THEREOF” (Revolution Medicines, Inc., priority 2019, published 2023).
Like-named read-outs stand apart in the source and are kept apart here.

Experiments:
[1] = system: PC-9 cells (EGFR Ex19Del); assay: Potency Assay: pERK (SOS1 pERK IC50 Assay, AlphaLISA SureFire Ultra p-ERK1/2); type: cell-based; settings: Homo sapiens, read-out: SOS1 pERK IC50
In short: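 PC-9 (EGFR Ex19Del) cells plated overnight, then treated 1 h at 37° C. with 10-point 3-fold dilutions (top 10 μM final) in duplicate. Lysate pERK1/2 measured by AlphaLISA SureFire Ultra; IC50 from 4-parameter sigmoidal fit.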

[2] = biological target: T1, SOS1 catalytic domain (residues 564-1049) (Homo sapiens, UniProt Q07889); assay: Potency Assay: binding affinity to SOS1 using Surface Plasmon Resonance (SPR); design: SOS1 catalytic domain (residues 564-1049) immobilized on a sensor chip; settings: immobilized SOS1 catalytic domain (residues 564-1049), read-out: SOS1 SPR Equilibrium Kd
T1 sequence (Q07889 564-1049): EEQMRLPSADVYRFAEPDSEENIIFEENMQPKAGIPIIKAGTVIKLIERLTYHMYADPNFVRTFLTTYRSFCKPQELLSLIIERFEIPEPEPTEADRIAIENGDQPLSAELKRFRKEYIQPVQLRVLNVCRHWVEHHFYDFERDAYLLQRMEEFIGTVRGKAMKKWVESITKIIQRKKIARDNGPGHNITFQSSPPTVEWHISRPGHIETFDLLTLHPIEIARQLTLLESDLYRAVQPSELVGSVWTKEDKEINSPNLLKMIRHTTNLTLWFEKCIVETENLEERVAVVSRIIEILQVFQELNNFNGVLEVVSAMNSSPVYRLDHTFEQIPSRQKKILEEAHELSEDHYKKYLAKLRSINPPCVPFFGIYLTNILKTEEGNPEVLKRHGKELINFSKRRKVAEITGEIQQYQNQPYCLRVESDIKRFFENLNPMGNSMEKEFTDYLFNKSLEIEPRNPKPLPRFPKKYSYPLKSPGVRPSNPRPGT
In short: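 Avi-tagged SOS1 catalytic domain captured on streptavidin chip (~6000 RU) in 0.01 M HEPES, 0.15 M NaCl, 0.05% P20. Compound dilution series flowed at 50 μL/min for association, then buffer for dissociation, with double reference subtraction. Kd derived from end-of-association binding response plotted against concentration.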

[3] = biological target: T1, SOS1 catalytic domain (residues 564-1049); assay: Mode of Action Assay: inhibition of SOS1 nucleotide exchange activity (SOS1 TR-FRET IC50 Assay)
[4] = PC-9 cells (EGFR Ex19Del), 1 hour incubation, AlphaLISA p-ERK1/2

| IC50 [1, 4] [nM] | Kd [2] [nM] | IC50 [3] [nM] | SMILES | IC50 ([1]; PC-9, 1 h) [nM] |
| --- | --- | --- | --- | --- |
| < 1000 | > 400 | < 1000 | COc1nccc(C(=O)N2Cc3nc(Cl)nc(N[C@H](C)c4cc(N)cc(C(F)(F)F)c4)c3C2)n1 [Example 72] | – |
| > 1000 | < 400 | < 1000 | CC(Nc1nc(Cl)nc2c1CN(C(=O)N1CCOCC1)C2)c1cccc2c1OCCC2(F)F (stereo not drawn) [Example 476, 2-chloro-N-[1-(4,4-difluoro-3,4-dihydro-2H-1-benzopyran-8-yl)ethyl]-6-(morpholine-4-carbonyl)-5H,6H,7H-pyrrolo[3,4-d]pyrimidin-4-amine] | – |
| < 1000 | < 400 | < 1000 | CC(CC(=O)N1Cc2nc(Cl)nc(N[C@H](C)c3cccc(C(F)F)c3F)c2C1)N1CCNCC1 (stereo partly drawn) [Example 296] | – |
| > 1000 | < 400 | < 1000 | C[C@@H](Nc1nc(Cl)nc2c1CN(C(=O)C1CCN(C3COC3)CC1)C2)c1cccc(C(F)F)c1F [Example 336] | – |
| < 1000 | < 400 | < 1000 | C[C@@H](Nc1nc(Cl)nc2c1CN(S(=O)(=O)C1CCNCC1)CC2)c1cc(N)cc(C(F)(F)F)c1 [Example 450] | – |
| > 1000 | < 400 | < 1000 | C[C@@H](Nc1nc(CN)nc2c1CN(C(=O)N1CCOCC1)C2)c1cc(N)cc(C(F)(F)F)c1 [Example 130, N-[(1R)-1-[3-amino-5-(trifluoromethyl)phenyl]ethyl]-2-(aminomethyl)-6-(morpholine-4-carbonyl)-5H,6H,7H-pyrrolo[3,4-d]pyrimidin-4-amine] | – |
| < 1000 | < 400 | < 1000 | C[C@@H](Nc1nc(Cl)nc2c1CN(C(=O)N1CCN(C)CC1)C2)c1cccc(C(F)F)c1F [Example 430] | – |
| < 1000 | < 400 | < 1000 | COC1CC(N)(C(=O)N2Cc3nc(Cl)nc(N[C@H](C)c4cccc(C(F)F)c4F)c3C2)C1 (stereo partly drawn) [Example 289] | – |
| > 1000 | < 400 | < 1000 | C[C@@H](Nc1nc(Cl)nc2c1CN(C(=O)N1CC3(CNC3)C1)C2)c1cccc(C(F)F)c1F [Example 393] | – |
| < 1000 | < 400 | < 1000 | C[C@@H](Nc1nc(Cl)nc2c1CN(C(=O)N1CCCNCC1)C2)c1cccc(C(F)F)c1F [Example 400] | – |
| < 1000 | < 400 | < 1000 | CC1CNCCN1C(=O)N1Cc2nc(Cl)nc(N[C@H](C)c3cccc(C(F)F)c3F)c2C1 (stereo partly drawn) [Example 391] | – |
| < 1000 | < 400 | < 1000 | C[C@@H](Nc1nc(Cl)nc2c1CN(C(=O)C1(F)CNC1)C2)c1cccc(C(F)F)c1F [Example 282] | – |
| < 1000 | < 400 | < 1000 | C[C@@H](Nc1nc(Cl)nc2c1CN(S(=O)(=O)N1CC3CCC(C1)O3)CC2)c1cc(N)cc(C(F)(F)F)c1 [Example 180] | – |
| < 1000 | < 400 | < 1000 | C[C@@H](Nc1nc(Cl)nc2c1CN(C(=O)C1(C)CCN(C3COC3)C1)C2)c1cccc(C(F)F)c1F (stereo partly drawn) [Example 341] | – |
| < 1000 | < 400 | < 1000 | C[C@@H](Nc1nc(Cl)nc2c1C[C@@H](N1CCOCC1)CC2)c1cc(N)cc(C(F)(F)F)c1 (single isomer, unassigned) [Example 170] | – |
| < 1000 | < 400 | < 1000 | C[C@@H](Nc1nc(Cl)nc2c1CN(C(=O)c1cc(-n3ccnc3)ccn1)C2)c1cc(N)cc(C(F)(F)F)c1 [Example 104] | – |
| < 1000 | < 400 | < 1000 | C[C@@H](Nc1nc(Cl)nc2c1CN(C(=O)N1CCOCC1)C2)c1cccc(C(F)(F)C2CCCO2)c1 (stereo partly drawn) [Example 491] | – |
| < 1000 | < 400 | < 1000 | C[C@@H](Nc1nc(Cl)nc2c1CN(C(=O)N1CCOCC1)C2)c1cccc(C(F)(F)COC2COC2)c1 [Example 479, 2-chloro-N-[(1R)-1-{3-[1,1-difluoro-2-(oxetan-3-yloxy)ethyl]phenyl}ethyl]-6-(morpholine-4-carbonyl)-5H,6H,7H-pyrrolo[3,4-d]pyrimidin-4-amine] | – |
| > 1000 | < 400 | < 1000 | C[C@@H](Nc1nc(Cl)nc2c1CN(C(=O)N1CCNCC13COC3)C2)c1cccc(C(F)F)c1F [Example 405] | – |

| IC50 [1, 4] [nM] | Kd [2] [nM] | IC50 [3] [nM] | SMILES | IC50 ([1]; PC-9, 1 h) [nM] |
| --- | --- | --- | --- | --- |
| < 1000 | < 400 | < 1000 | C[C@@H](Nc1nc(Cl)nc2c1CN(C(=O)N1CCNCC1)C2)c1cc(N)cc(C(F)(F)F)c1 [Example 356] | – |
| < 1000 | < 400 | < 1000 | C[C@@H](Nc1nc(Cl)nc2c1CN(C(=O)C1(C)CCOCC1)C2)c1cccc(C(F)(F)CO)c1 [Example 240] | – |
| > 1000 | > 400 | > 1000 | COc1cccnc1C(=O)N1CCc2nc(Cl)nc(N[C@H](C)c3cc(N)cc(C(F)(F)F)c3)c2C1 [Example 232] | – |
| > 1000 | < 400 | < 1000 | Cc1c(C(C)Nc2nc(Cl)nc3c2CN(C(=O)N2CCOCC2)C3)cccc1C(F)(F)CO (stereo not drawn) [Example 507, 2-[3-(1-{[2-chloro-6-(morpholine-4-carbonyl)-5H,6H,7H-pyrrolo[3,4-d]pyrimidin-4-yl]amino}ethyl)-2-methylphenyl]-2,2-difluoroethan-1-ol] | – |
| < 1000 | < 400 | < 1000 | COC1(C(=O)N2Cc3nc(Cl)nc(N[C@H](C)c4cccc(C(F)(F)F)c4)c3C2)CNC1 [Example 316] | – |
| > 1000 | < 400 | > 1000 | C[C@@H](Nc1nc(Cl)nc2c1CN(C(=O)C13CC(O)(C1)C3)CC2)c1cc(N)cc(C(F)(F)F)c1 [Example 193] | – |
| < 1000 | < 400 | < 1000 | C[C@@H](Nc1nc(Cl)nc2c1CN(C(=O)C1CNCCO1)C2)c1cccc(C(F)F)c1F (stereo partly drawn) [Example 288] | – |
| < 1000 | > 400 | > 1000 | C[C@@H](Nc1nc(Cl)nc2c1CN(C(=O)c1cccc(OC3CCOCC3)n1)C2)c1cc(N)cc(C(F)(F)F)c1 [Example 83] | – |
| < 1000 | < 400 | < 1000 | C[C@@H](Nc1nc(Cl)nc2c1CN(S(=O)(=O)C1CC1)C2)c1cc(N)cc(C(F)(F)F)c1 [Example 52] | – |
| > 1000 | > 400 | < 1000 | C[C@@H](Nc1nc(Cl)nc2c1CN(C(=O)[C@@H]1COCCN1)C2)c1cccc(C(F)(F)F)c1 [Example 275] | – |
| < 1000 | > 400 | > 1000 | C[C@@H](Nc1nc(Cl)nc2c1CN(C(=O)C13COC(C1)C3)CC2)c1cc(N)cc(C(F)(F)F)c1 [Example 212] | – |
| < 1000 | < 400 | < 1000 | C[C@@H](Nc1nc(Cl)nc2c1CN(S(=O)(=O)N1CCN(C)CC1)CC2)c1cc(N)cc(C(F)(F)F)c1 [Example 184] | – |
| > 1000 | < 400 | < 1000 | C[C@@H](Nc1nc(Cl)nc2c1CN(C(=O)C1(C)CCNCC1)C2)c1cccc(C(F)(F)F)c1 [Example 314] | – |
| > 1000 | < 400 | < 1000 | C[C@@H](Nc1nc(Cl)nc2c1CN(C(=O)N1CCC13CNC3)C2)c1cccc(C(F)F)c1F [Example 392] | – |
| < 1000 | < 400 | > 1000 | COc1ccc2c(c1)OCCN2C(=O)N1Cc2nc(Cl)nc(N[C@H](C)c3cc(N)cc(C(F)(F)F)c3)c2C1 [Example 140] | – |
| < 1000 | < 400 | < 1000 | C[C@@H](Nc1nc(Cl)nc2c1CN(C(=O)C1(F)CN(C3COC3)C1)C2)c1cccc(C(F)F)c1F [Example 329] | – |
| > 1000 | < 400 | < 1000 | C[C@@H](Nc1nc(Cl)nc2c1CN(C(=O)N1C[C@H]3CNCC[C@H]3C1)C2)c1cccc(C(F)(F)F)c1 [Example 378] | – |
| < 1000 | < 400 | < 1000 | C[C@@H](Nc1nc(Cl)nc2c1CC(N1CC3(COC3)C1)CC2)c1cc(N)cc(C(F)(F)F)c1 (stereo partly drawn) [Example 433] | – |

| SMILES | IC50 [1, 4] [nM] | Kd [2] [nM] | IC50 [3] [nM] | IC50 ([1]; PC-9, 1 h) [nM] |
| --- | --- | --- | --- | --- |
| C[C@@H](Nc1nc(Cl)nc2c1CN(C(=O)N1CC3CCC(C1)N3)C2)c1cccc(C(F)F)c1F [Example 388] | < 1000 | < 400 | < 1000 | – |
| C[C@@H](Nc1nc(Cl)nc2c1CN(C(=O)N1CCOCC1)C2)c1cccc(C(F)F)c1Br [Example 528, N-[(1R)-1-[2-bromo-3-(difluoromethyl)phenyl]ethyl]-2-chloro-6-(morpholine-4-carbonyl)-5H,6H,7H-pyrrolo[3,4-d]pyrimidin-4-amine] | – | > 400 | < 1000 | < 1000 |
